Measurements as given in paper PMC9604400, “Synthesis, Anticancer and Antitubercular Properties of New Chalcones and Their Nitrogen-Containing Five-Membered Heterocyclic Hybrids Bearing Sulfonamide Moiety” (International Journal of Molecular Sciences, 2022).

Legend:
[1] = system: HOP-62; experiment: NCI-60 screen (SRB), non-small cell lung cancer; conditions: Homo sapiens; for IC50: HOP-62; for CC50: HOP-62, read-out: LC50
[2] = system: HOP-92; experiment: NCI-60 screen (SRB), non-small cell lung cancer; conditions: Homo sapiens; for IC50: HOP-92; for CC50: HOP-92, read-out: LC50
[3] = system: NCI-H460; experiment: NCI-60 screen (SRB), non-small cell lung cancer; conditions: for IC50 / CC50: Homo sapiens; for IC50: NCI-H460; for CC50: NCI-H460, read-out: LC50
[4] = system: BT-549; experiment: NCI-60 screen (SRB), breast cancer; conditions: Homo sapiens; for IC50: BT-549; for CC50: BT-549, read-out: LC50
[5] = system: UO-31; experiment: NCI-60 screen (SRB), renal cancer; conditions: for IC50 / CC50: Homo sapiens; for IC50: UO-31; for CC50: UO-31, read-out: LC50
[6] = system: SK-MEL-5; experiment: NCI-60 screen (SRB), melanoma; conditions: Homo sapiens; for IC50: SK-MEL-5; for CC50: SK-MEL-5, read-out: LC50
[7] = system: RXF 393; experiment: NCI-60 screen (SRB), renal cancer; conditions: for IC50 / CC50: Homo sapiens; for IC50: RXF 393; for CC50: RXF 393, read-out: LC50; for lethality: RXF 393, single dose 10 μM
[8] = system: colon cancer cell lines; experiment: NCI-60 screen (SRB), colon cancer panel; assay type: cell-based; conditions: Homo sapiens, single dose 10 μM, read-out: GI (growth inhibition), range over panel
[9] = system: SNB-75; experiment: NCI-60 screen (SRB), CNS cancer; conditions: Homo sapiens; for IC50: SNB-75; for CC50: SNB-75, read-out: LC50
[10] = system: MDA-MB-468; experiment: NCI-60 screen (SRB), breast cancer; conditions: for IC50 / CC50: Homo sapiens; for IC50: MDA-MB-468; for CC50: MDA-MB-468, read-out: LC50; for lethality: MDA-MB-468, single dose 10 μM
[11] = system: NCI-H322M; experiment: NCI-60 screen (SRB), non-small cell lung cancer; assay type: cell-based; conditions: Homo sapiens; for IC50: five-dose screen; for CC50: read-out: LC50
Protocol: All compounds selected by the US National Cancer Institute (NCI) were initially tested at a single dose (10^−5 M) on the full panel of 60 cancer cell lines represented by leukemia, melanoma, lung, colon, central nervous system (CNS), ovarian, kidney, prostate and breast cancer. Only compounds that were able to satisfy the predetermined inhibition criteria against a minimum number of cell lines proceeded to five-dose assays ([…], 0.1 and 0.01 μM).
In these studies, human cancer cell lines were cultured in a RPMI-1640 medium containing 5% fetal bovine serum and 2 mM of L-glutamine. Following the protocol for a typical assay, cells were inoculated into 96-well plates and incubated at 37 °C, 5% CO2, 95% air, and 100% relative humidity for 24 h prior to the addition of the compounds to be tested. After 24 h, two plates of each cell line were fixed in situ with trichloroacetic acid (TCA) to represent a measure of the cell population for each cell line at the time of sample addition (Tz). Compounds were dissolved in DMSO to 400-fold the maximum desired concentration for analysis and subsequently diluted to twice the maximum desired concentration with medium containing 50 μg/mL gentamicin. An additional series of four dilutions at 10-fold concentration was performed to provide a total of five concentrations of the compound plus the control. Aliquots of 100 μL of these dilutions were taken and added to 96-well plates already containing 100 μL of the medium, resulting in the final required concentrations of the sample. The plates were incubated for 48 h at the same conditions. For adherent cells, the assay was terminated with the addition of cold TCA. Cells were fixed in situ by the slow addition of 50 μL of 50% (w/v) cold ATC (final concentration, 10% TCA) and incubated for 60 min at 4 °C. The supernatant was discarded, and the plates were washed five times with tap water and air dried. A quantity of 100 μL of 0.4% (w/v) sulforhodamine B (SRB) solution in 1% acetic acid was added to each well, and each plate was incubated for 10 min at room temperature. Upon completion of staining, unbound pigment was removed by five washes with 1% acetic acid and the plates were air-dried. The stains were solubilized with 10 mM Trizma base and absorbance was recorded on an automated plate reader at a wavelength of 515 nm. Using the absorbance measurements [time zero (Tz), growth control in the absence of the sample and growth test in the presence of the sample at the five concentration levels (Ti)], the percent growth was calculated for each sample at the concentration levels. The percent growth was calculated as: [(Ti − Tz)/(C − Tz)] × 100 for concentrations for which Ti > Tz, and [(Ti − Tz)/Tz] × 100 for concentrations for which Ti < Tz. Two dose-response parameters were calculated for each compound. The 50% growth inhibition (GI50) was calculated from [(Ti − Tz)/(C − Tz)] × 100 = 50, which is the sample concentration at which the net increase in protein is 50% lower in treated cells (as measured by SRB staining) compared to the net increase in protein seen in control cells and the LC50 (sample concentration at which a 50% reduction in protein measured at the end of treatment compared to the beginning), indicating a net loss of cells; calculated from [(Ti − Tz)/Tz] × 100 = −50. Values were calculated for each of these two parameters if the activity level was reached; however, if the effect was not reached or was exceeded, the value for that parameter was expressed as greater or less than the maximum or minimum of the concentration tested.

[12] = system: OVCAR-8; experiment: NCI-60 screen (SRB), ovarian cancer; conditions: Homo sapiens; for IC50: OVCAR-8; for CC50: OVCAR-8, read-out: LC50
[13] = system: KM12; experiment: NCI-60 screen (SRB), colon cancer; conditions: Homo sapiens; for IC50: KM12; for CC50: KM12, read-out: LC50
[14] = system: LOX IMVI; experiment: NCI-60 screen (SRB), melanoma; conditions: for IC50 / CC50: Homo sapiens; for CC50: read-out: LC50; for lethality: single dose 10 μM
[15] = system: TK-10; experiment: NCI-60 screen (SRB), renal cancer; conditions: Homo sapiens; for IC50: TK-10; for CC50: TK-10, read-out: LC50
[16] = system: A498; experiment: NCI-60 screen (SRB), renal cancer; conditions: Homo sapiens; for IC50: A498; for CC50: A498, read-out: LC50
[17] = system: SK-MEL-2; experiment: NCI-60 screen (SRB), melanoma; conditions: for IC50 / CC50: Homo sapiens; for IC50: SK-MEL-2; for CC50: SK-MEL-2, read-out: LC50
[18] = system: MCF7; experiment: NCI-60 screen (SRB), breast cancer; conditions: Homo sapiens; for IC50: MCF7; for CC50: MCF7, read-out: LC50

Structure (SMILES)	IC50 [1]	CC50 [1]	IC50 [2]	CC50 [2]	IC50 [3]	CC50 [3]	IC50 [4]	CC50 [4]	IC50 [5]	CC50 [5]	IC50 [6]	CC50 [6]	IC50 [7]	CC50 [7]	IC50 [9]	CC50 [9]	IC50 [10]	CC50 [10]	IC50 [11]	CC50 [11]	other results
COc1cc(OC)c(S(N)(=O)=O)cc1C(=O)C=Cc1ccccc1 [Compound 17a, 5-Cinnamoyl-2,4-dimethoxybenzenesulfonamide]	9.51 µM	51.9 µM	2.06 µM	37.1 µM	1.95 µM	51.2 µM	2.65 µM	40.6 µM	4.76 µM	43.5 µM	17.6 µM	59.7 µM	1.9 µM	30 µM	2.08 µM	26.9 µM	1.2 µM	43.9 µM	10.7 µM	47.6 µM	lethality [7]: 29.73%; inhibition at 10 µM [8]: 72.5 to 96.2%; lethality [10]: 43.37%; IC50 [12]: 11.3 µM; CC50 [12]: 51.3 µM; IC50 [13]: 3.31 µM; CC50 [13]: 62.3 µM; IC50 [14]: 0.34 µM; CC50 [14]: 41.4 µM; IC50 [15]: 12.9 µM; CC50 [15]: 51.5 µM; IC50 [16]: 16.9 µM; CC50 [16]: 55.8 µM; IC50 [17]: 12.6 µM; CC50 [17]: 55.9 µM; IC50 [18]: 0.97 µM; CC50 [18]: 62.5 µM
COc1cc(OC)c(S(N)(=O)=O)cc1C(=O)/C=C/c1ccc(Cl)cc1 [Compound 17b, (E)-5-(3-(4-Chlorophenyl)acryloyl)-2,4-dimethoxybenzenesulfonamide]	2.5 µM	25.9 µM	1.46 µM	24.9 µM	2.84 µM	> 100 µM	2.73 µM	5.97 µM	2.36 µM	33.1 µM	4.93 µM	43 µM	1.62 µM	6.89 µM	1.5 µM	6.95 µM	3.08 µM	6.54 µM	2.31 µM	38.7 µM	lethality [7]: 40.37%; inhibition at 10 µM [8]: 92.2 to 100%; lethality [10]: 57.82%; IC50 [12]: 3.01 µM; CC50 [12]: > 100 µM; IC50 [13]: 1.82 µM; CC50 [13]: > 100 µM; IC50 [14]: 0.73 µM; CC50 [14]: 7.03 µM; lethality [14]: 50.40%; IC50 [15]: 2.91 µM; CC50 [15]: 33.4 µM; IC50 [16]: 18.6 µM; CC50 [16]: 62.2 µM; IC50 [17]: 11.5 µM; CC50 [17]: 57.2 µM; IC50 [18]: 4.11 µM; CC50 [18]: 40.3 µM
COc1cc(OC)c(S(N)(=O)=O)cc1C(=O)/C=C/c1ccc(C)cc1 [Compound 17c, (E)-2,4-Dimethoxy-5-(3-(p-tolyl)acryloyl)benzenesulfonamide]	2.9 µM	29.5 µM	2.3 µM	35.4 µM	2.24 µM	44.3 µM	2.18 µM	31.6 µM	3.46 µM	38.1 µM	7.81 µM	49.4 µM	2.24 µM	28.8 µM	1.84 µM	18.2 µM	1.96 µM	54.3 µM	2.87 µM	34.7 µM	lethality ([3]; NCI-H460, single dose 10 μM): 3.51%; lethality [7]: 28.21%; inhibition at 10 µM [8]: 83 to 100%; lethality [10]: 36.18%; IC50 [12]: 2.17 µM; CC50 [12]: 15.8 µM; IC50 [13]: 3.13 µM; CC50 [13]: > 100 µM; IC50 [14]: 0.54 µM; CC50 [14]: 76.2 µM; IC50 [15]: 3.41 µM; CC50 [15]: 39.6 µM; IC50 [16]: 16.2 µM; CC50 [16]: 58.1 µM; IC50 [17]: 11.5 µM; CC50 [17]: 55.7 µM; IC50 [18]: 2.48 µM; CC50 [18]: 54.1 µM
COc1cc(OC)c(S(=O)(=O)N(CCCl)CCCl)cc1C(=O)/C=C/c1cc(OC)c(OC)c(OC)c1 [Compound 18e, (E)-N,N-bis(2-Chloroethyl)-2,4-dimethoxy-5-(3-(3,4,5-trimethoxyphenyl)acryloyl)benzenesulfonamide]	3.77 µM	> 100 µM	> 100 µM	> 100 µM	1.95 µM	> 100 µM	2.92 µM	6.24 µM	2.92 µM	5.51 µM	3.64 µM	7.19 µM	2.83 µM	6.44 µM	8.53 µM	> 100 µM	3.66 µM	8.84 µM	3 µM	> 100 µM	lethality ([5]; UO-31, single dose 10 μM): 93.86%; IC50 [12]: > 100 µM; CC50 [12]: > 100 µM; IC50 [13]: 4.25 µM; CC50 [13]: 9.4 µM; IC50 [14]: 2.89 µM; CC50 [14]: 5.79 µM; lethality [14]: 84.53%; IC50 [15]: 75 µM; CC50 [15]: > 100 µM; IC50 [16]: 7.23 µM; CC50 [16]: 65.5 µM; IC50 [17]: 4.65 µM; CC50 [17]: 27.6 µM; lethality ([17]; SK-MEL-2, single dose 10 μM): 94.49%; IC50 [18]: 4.36 µM; CC50 [18]: 35.5 µM
